Where two headings read alike, the source gives them in different places.
Key:
[1] = tested on: HepG2 (hepatocellular carcinoma); assay: in vitro cytotoxicity assay (Cell-Titer-Glo), HepG2; assay type: cell-based; conditions: Homo sapiens, HepG2, 96 h, 4 days
Protocol: (§1) To evaluate cell killing of cancer cell lines, an in vitro cytotoxicity assay was performed. The tumor cell lines used were purchased from the American Type Culture Collection, and are identified as follows: Panc-1 (pancreas), MiaPaCa-2 (pancreas), MCF-7 (breast), HT-29 (colon), U2-OS (osteosarcoma), OVCAR-3 (ovary), HepG2 (hepatocellular carcinoma) and TT (medullary thyroid). The assay utilized the Cell-Titer-Glo Non-Radioactive Cell Proliferation Assay (Promega Corp., Madison, Wis.). First the cells were cultured in RPMI 1640 medium (Cat# 21870-076, Invitrogen Corporation) supplemented with 300 mg/L L-glutamine, 100 units/ml penicillin, 100 μg/ml streptomycin and 10% fetal bovine serum. All the cell lines were incubated in a humidified incubator at 37° C. with 5% CO2 atmosphere.
(§2) Cells were plated at a density of 2000 to 10000 cells per well, depending on their growth rate, in 0.09 mL medium on day 0 in 96-well Microlite TCT microtiter plates (7418, Thermo Labsystems, Franklin, Mass.). On day 1, 10 μL of serial dilutions of the individual compounds were added to the plates in replicates of 3. After incubation for 4 days at 37° C. in a humidified incubator, the cells were lysed in the Cell-Titer-Glo reagent, which also contains luciferase enzyme. The luciferase reaction utilizes ATP released from lysed cells to produce light, the intensity of which is linearly related to the amount of ATP. Thus, the amount of light produced is a reflection of the number of cells remaining in the well after drug treatment. This luminescence was measured using a Luminoskan luminometer (Thermo Electron Corp., Vantaa, Finland) Data were expressed as the percentage of survival of control cells calculated from the luminescence corrected for background. The surviving percent of cells was determined by dividing the mean luminescence values of the treated wells by the mean luminescence values of the control and multiplying by 100.
as §1, with “Briefly,” for “To evaluate cell killing of cancer cell lines, an in vitro cytotoxicity assay was performed. The”, “thyroid), PC-3 (prostate) and A549 (lung).” for “thyroid).”
as §1, with “carcinoma), PC-3 (prostate),” for “carcinoma)”, “A549 (lung).” for “TT (medullary thyroid).”
(§3) Cells were plated at a density of 2000 to 10000 cells per well, depending on their growth rate, in 0.09 mL medium on day 0 in 96-well Microlite TCT microtiter plates (#7418, Thermo Labsystems, Franklin, Mass.). On day 1, 10 μL of serial dilutions of the individual compounds were added to the plates in replicates of 3. After incubation for 4 days at 37° C. in a humidified incubator, the cells were lysed in the Cell-Titer-Glo reagent, which also contains luciferase enzyme. […]

[2] = tested on: OVCAR-3 (ovary); assay: in vitro cytotoxicity assay (Cell-Titer-Glo), OVCAR-3; assay type: cell-based; conditions: Homo sapiens
Protocol: as §1, §2
as §1, with “Briefly,” for “To evaluate cell killing of cancer cell lines, an in vitro cytotoxicity assay was performed. The”, “thyroid), PC-3 (prostate) and A549 (lung).” for “thyroid).”
as §1, with “carcinoma), PC-3 (prostate),” for “carcinoma)”, “A549 (lung).” for “TT (medullary thyroid).”
as §3

[3] = OVCAR-3, 96 h, Table 9, 4 days, read-out: IC50 OVCAR-3
[4] = Example 20, read-out: Cell-based IC50 values HepG2
[5] = OVCAR-3, 96 h, Example 20, 4 days, read-out: Cell-based IC50 values OVCAR-3

SMILES: Cc1ccc(NS(=O)(=O)c2ccc(NC(=S)N3CCN(c4ncnc5[nH]c6cc(Cl)c(N7CCOCC7)cc6c45)CC3)cc2)cc1 [Compound 2-9, 4-(7-chloro-6-morpholino-9H-pyrimido[4,5-b]indol-4-yl)-N-(4-(N-tolylsulfamoyl)phenyl)piperazine-1-carbothioamide]
- IC50 ([1]; Table 9, read-out: IC50 HepG2): 25.6 µM
- IC50 [2, 3]: 7.61 µM

SMILES: COc1cc2[nH]c3ncnc(N4CCN(C(=S)Nc5ccc(S(C)(=O)=O)cc5)CC4)c3c2cc1OC [Compound 1-115]
- IC50 [1, 4]: 57.9 µM
- IC50 [2, 5]: 175 µM

SMILES: COc1cc2[nH]c3ncnc(N4CCN(C(=S)Nc5ccc(S(=O)(=O)Nc6ccc(F)cc6)cc5)CC4)c3c2cc1OC [Compound 2-3, 4-(6,7-dimethoxy-9H-pyrimido[4,5-b]indol-4-yl)-N-(4-(N-(4-fluorophenyl)sulfamoyl)phenyl)piperazine-1-carbothioamide]
- IC50 ([1]; Table 9, read-out: IC50 HepG2): 9.02 µM
- IC50 [2, 3]: 9.14 µM

SMILES: COc1cc2[nH]c3ncnc(N4CCN(C(=S)Nc5ccc(S(=O)(=O)NC(C)=O)cc5)CC4)c3c2cc1OC [Compound 1-2, 4-(6,7-Dimethoxy-9H-pyrimido[4,5-b]indol-4-yl)-piperazine-1-carbothioic acid (4-acetylsulfamoyl-phenyl)-amide]
- IC50 [1, 4]: 295 µM
- IC50 [2, 5]: 29.4 µM

SMILES: CC(=O)NS(=O)(=O)c1ccc(NC(=S)N2CCN(c3ncnc4[nH]c5cc(C(F)(F)F)c(Cl)cc5c34)CC2)cc1 [Compound 1-1, 4-(6-Chloro-7-trifluoromethyl-9H-pyrimido[4,5-b]indol-4-yl)-piperazine-1-carbothioic acid (4-acetylsulfamoyl-phenyl)-amide]
- IC50 ([1]; Example 18, read-out: calculated IC50 HepG2): 7.83 µM
- IC50 [1, 4]: 26 µM
- IC50 ([2]; OVCAR-3, 96 h, Example 18, 4 days, read-out: calculated IC50 OVCAR-3): 25 µM
- IC50 [2, 5]: 13.1 µM
- IC50 ([2]; OVCAR-3, Table 10, 96 hours, read-out: IC50 OVCAR-3 (inhibit cell growth to 50% of untreated)): 25 µM

SMILES: COc1cc2c(cc1O)[nH]c1ncnc(N3CCN(C(=S)Nc4ccc(S(=O)(=O)NC(C)=O)cc4)CC3)c12 [Compound 1-8]
- IC50 [1, 4]: 81.8 µM
- IC50 [2, 5]: 82.4 µM

SMILES: COc1cc2[nH]c3ncnc(N4CCN(C(=S)Nc5ccc(S(=O)(=O)N6CCOCC6)cc5)CC4)c3c2cc1OC [Compound 1-26]
- IC50 [1, 4]: 4.38 µM
- IC50 [2, 5]: 156 µM

SMILES: CC(=O)NS(=O)(=O)c1ccc(NC(=S)N2CCN(c3ncnc4[nH]c5ccc(Cl)cc5c34)CC2)cc1 [Compound 1-3, 4-(6-chloro-9H-pyrimido[4,5-b]indol-4-yl)-piperazine-1-carbothioic acid (4-acetylsulfamoyl-phenyl)-amide]
- IC50 [1, 4]: 49.6 µM
- IC50 [2, 5]: 48 µM

SMILES: COc1cc2[nH]c3ncnc(N4CCN(C(=S)Nc5ccc(NC(C)=O)cc5)CC4)c3c2cc1OC [Compound 1-42]
- IC50 [1, 4]: 98.5 µM
- IC50 [2, 5]: 85.1 µM

SMILES: CC(=O)NS(=O)(=O)c1ccc(NC(=S)N2CCN(c3ncnc4[nH]c5cc(F)ccc5c34)CC2)cc1 [Compound 1-4]
- IC50 [1, 4]: 88 µM
- IC50 [2, 5]: 79 µM

SMILES: COc1ccc2c(c1)[nH]c1ncnc(N3CCN(C(=S)Nc4ccc(S(=O)(=O)Nc5ccc(F)cc5)cc4)CC3)c12 [Compound 2-5, 4-(7-methoxy-9H-pyrimido[4,5-b]indol-4-yl)-N-(4-(N-(4-fluorophenyl)sulfamoyl)phenyl)piperazine-1-carbothioamide]
- IC50 ([1]; Table 9, read-out: IC50 HepG2): 8 µM
- IC50 [2, 3]: 6.79 µM

SMILES: COc1cc2[nH]c3ncnc(N4CCN(C(=S)Nc5ccc(NC(=O)C6CC6)cc5)CC4)c3c2cc1OC [Compound 1-34]
- IC50 [1, 4]: 81.9 µM
- IC50 [2, 5]: 111 µM

SMILES: COc1cc2[nH]c3ncnc(N4CCN(C(=S)Nc5ccc(S(N)(=O)=O)cc5)CC4)c3c2cc1OC [Compound 1-107]
- IC50 [1, 4]: 173 µM
- IC50 [2, 5]: 176 µM
